These results are taken from patent US20180071303A1, “SYK INHIBITORS” (Gilead Sciences, Inc., priority 2016, published 2018).

For data set [1] the following is noted: Nijjar J. S. et al., Rheumatology 2013; cited from earlier work.
The next data set deals with previously untreated AML. The data set can be described thus: phase 1b/2 study (NCT02343939) of entospletinib monotherapy followed by combination with daunorubicin and cytarabine. To be noted: for complete remission (CR) rate: with induction chemotherapy.

Source text for previously untreated AML: Patients with residual disease two weeks after chemotherapy received a second induction cycle identical to the first.

For `COc1cc(Nc2ncc(F)c(Nc3ccc4c(n3)N(COP(=O)(O)O)C(=O)C(C)(C)O4)n2)cc(OC)c1OC` [Fostamatinib], the adverse side effects result in data set [1] is “hypertension, neutropenia and transaminitis”.

For `c1cn2cc(-c3ccc4cn[nH]c4c3)nc(Nc3ccc(N4CCOCC4)cc3)c2n1` [entospletinib], the “patients requiring a second induction” value was “two” in the data set with previously untreated AML (200 mg BID, 3 patients) and “none” with previously untreated AML (400 mg BID, 6 patients). The “complete remission (CR) rate” value in the data set on previously untreated AML (200 mg BID, 3 patients) worked out at 100%; in the data set on previously untreated AML (400 mg BID, 6 patients) it was 100%. Besides, the “dose limiting toxicity (DLT)” value with previously untreated AML (200 mg BID, three patients) is reported as “no DLT was observed”; in the data set on previously untreated AML (400 mg BID, 3 additional patients (DL 1 expanded)) it was “none of whom experienced DLT”. Besides, in the data set on previously untreated AML (400 mg BID, one of three patients, with documented fungal pneumonia, did not meet DLT criteria), the “adverse event possibly related to entospletinib” value was “grade 3 pneumonitis”. In addition, the “platelet response during the window period” value in the data set with previously untreated AML (another patient with 11q23-rearranged AML, monotherapy window) is given as “significant platelet response”. Moreover, the “toxicities after combination with intensive chemotherapy” value with previously untreated AML (combination with daunorubicin and cytarabine) was “common and typical”. Further, the “tolerability of combination with intensive chemotherapy” value with previously untreated AML (doses up to 400 mg BID) is recorded as “well tolerated”. Also, the “tolerability of single-agent entospletinib” value in the data set on previously untreated AML (monotherapy window period (up to 14 days), AML patients) is listed as “well tolerated”. Also, in the data set on previously untreated AML (overall conclusion), the “clinical activity in AML” value is “significant clinical activity”. For the same compound, in the data set on previously untreated AML (overall, inclusive of intensive chemotherapy periods), the “most common non hematologic adverse events” value was “febrile neutropenia, nausea, and diarrhea”. Besides, the “response after entospletinib monotherapy window” value in the data set with previously untreated AML (person with 11q23-rearranged AML, 14 day monotherapy, prior to chemotherapy) was “achieved morphologic and cytogenetic CR”.
